The values that follow come from patent publication US20200016159A1, “N3-CYCLICALLY SUBSTITUTED THIENOURACILS AND USE THEREOF” (Bayer Aktiengesellschaft, priority 2016, published 2020).

The target in the assay is T1, human adenosine A2b receptor (Homo sapiens, UniProt P29275).
T1 sequence (P29275 1-332): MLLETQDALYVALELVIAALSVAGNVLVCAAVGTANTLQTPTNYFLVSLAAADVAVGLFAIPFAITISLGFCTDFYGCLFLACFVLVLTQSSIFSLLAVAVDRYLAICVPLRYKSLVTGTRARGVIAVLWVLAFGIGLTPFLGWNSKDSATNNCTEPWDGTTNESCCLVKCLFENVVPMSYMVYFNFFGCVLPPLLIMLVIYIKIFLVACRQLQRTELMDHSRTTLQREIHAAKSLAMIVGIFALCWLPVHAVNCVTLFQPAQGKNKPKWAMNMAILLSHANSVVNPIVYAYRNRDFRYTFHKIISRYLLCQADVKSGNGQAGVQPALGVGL
The experiment in a line: Cellular in vitro reporter gene test for A2b receptor activity (antagonism of NECA). The format is cell-based. Further details: expressed in transfected cells; host or cells: CHO-K1 (Chinese hamster ovary) with CRE-luciferase reporter. Particulars: recombinant CHO-K1 cells, CRE-luciferase reporter, co-incubation with EC50 concentration of NECA, 3 hours. The method in brief:
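CHO-K1 cells expressing recombinant human A2b receptor plus a CRE-driven firefly luciferase reporter. Compounds co-incubated with NECA at its same-day EC50 concentration; luminescence read 3 hours after NECA addition. IC50 values, sometimes means of several determinations rounded to two significant figures.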
Background: In a reporter assay the amount or activity of a reporter protein is the signal.

Molecules are shown by their SMILES.

What is called IC50 is the concentration that inhibits the measured activity by half. As for `Cc1c(CN2CCNC2=O)sc2c1c(=O)n(C1CC1C)c(=O)n2CC1CCOC1` (single isomer, unassigned) [Example 291, 5-Methyl-3-(2-methylcyclopropyl)-6-[(2-oxoimidazolidin-1-yl)methyl]-1-(tetrahydrofuran-3-ylmethyl)thieno[2,3-d]pyrimidine-2,4(1H,3H)-dione], the half-inhibitory concentration (IC50) turned out to be 19 nM.

For `Cc1c(CN2CCNC2=O)sc2c1c(=O)n(C1CC1C)c(=O)n2CC1CCOC1` (single isomer, unassigned) [Example 292, 5-Methyl-3-(2-methylcyclopropyl)-6-[(2-oxoimidazolidin-1-yl)methyl]-1-(tetrahydrofuran-3-ylmethyl)thieno[2,3-d]pyrimidine-2,4(1H,3H)-dione], the 50% inhibitory concentration (IC50) stood at 150 nM.

Consider `Cc1c(CN2CCNC2=O)sc2c1c(=O)n(C1CC1C)c(=O)n2CC1CCOC1` (single isomer, unassigned) [Example 293, 5-Methyl-3-(2-methylcyclopropyl)-6-[(2-oxoimidazolidin-1-yl)methyl]-1-(tetrahydrofuran-3-ylmethyl)thieno[2,3-d]pyrimidine-2,4(1H,3H)-dione], for which the half-inhibitory concentration (IC50) is 12 nM.

For `COCCn1c(=O)n(C2CC2C(F)(F)F)c(=O)c2c(C)c(CN3CCNC3=O)sc21` (single isomer, unassigned) [Example 295, 1-(2-Methoxyethyl)-5-methyl-6-[(2-oxoimidazolidin-1-yl)methyl]-3-[2-(trifluoromethyl)cyclopropyl]thieno[2,3-d]pyrimidine-2,4(1H,3H)-dione], the IC50 was 120 nM.

For `COCCn1c(=O)n(C2CC2C(F)(F)F)c(=O)c2c(C)c(CN3CCNC3=O)sc21` (single isomer, unassigned) [Example 296, 1-(2-Methoxyethyl)-5-methyl-6-[(2-oxoimidazolidin-1-yl)methyl]-3-[2-(trifluoromethyl)cyclopropyl]thieno[2,3-d]pyrimidine-2,4(1H,3H)-dione], the IC50 is 16 nM.

Consider `COCCn1c(=O)n(C2CC2C(F)(F)F)c(=O)c2c(C)c(Cn3nc[nH]c3=O)sc21` (single isomer, unassigned) [Example 298, 1-(2-Methoxyethyl)-5-methyl-6-[(5-oxo-4,5-dihydro-1H-1,2,4-triazol-1-yl)methyl]-3-[2-(trifluoromethyl)cyclopropyl]thieno[2,3-d]pyrimidine-2,4(1H,3H)-dione], for which the IC50 is 1800 nM.

As to `COCCn1c(=O)n(C2CC2C(F)(F)F)c(=O)c2c(C)c(Cn3nc[nH]c3=O)sc21` (single isomer, unassigned) [Example 299, 1-(2-Methoxyethyl)-5-methyl-6-[(5-oxo-4,5-dihydro-H-1,2,4-triazol-1-yl)methyl]-3-[2-(trifluoromethyl)cyclopropyl]thieno[2,3-d]pyrimidine-2,4(1H,3H)-dione], the IC50 was 220 nM.

`CCC1CC1n1c(=O)c2c(C)c(CN3CCNC3=O)sc2n(CCOC)c1=O` (single isomer, unassigned) [Example 301, 3-(2-Ethylcyclopropyl)-1-(2-methoxyethyl)-5-methyl-6-[(2-oxoimidazolidin-1-yl)methyl]thieno[2,3-d]pyrimidine-2,4(1H,3H)-dione]: the IC50 amounted to 64 nM.

Turning to `CCC1CC1n1c(=O)c2c(C)c(CN3CCNC3=O)sc2n(CCOC)c1=O` (single isomer, unassigned) [Example 302, 3-(2-Ethylcyclopropyl)-1-(2-methoxyethyl)-5-methyl-6-[(2-oxoimidazolidin-1-yl)methyl]thieno[2,3-d]pyrimidine-2,4(1H,3H)-dione], the half-inhibitory concentration (IC50) was found to be 10 nM.

Turning to `CCC1CC1n1c(=O)c2c(C)c(Cn3nc[nH]c3=O)sc2n(CCOC)c1=O` (single isomer, unassigned) [Example 304, 3-(2-Ethylcyclopropyl)-1-(2-methoxyethyl)-5-methyl-6-[(5-oxo-4,5-dihydro-H-1,2,4-triazol-1-yl)methyl]thieno[2,3-d]pyrimidine-2,4(1H,3H)-dione], the 50% inhibitory concentration (IC50) was 350 nM.

Regarding `CCC1CC1n1c(=O)c2c(C)c(Cn3nc[nH]c3=O)sc2n(CCOC)c1=O` (single isomer, unassigned) [Example 305, 3-(2-Ethylcyclopropyl)-1-(2-methoxyethyl)-5-methyl-6-[(5-oxo-4,5-dihydro-H-1,2,4-triazol-1-yl)methyl]thieno[2,3-d]pyrimidine-2,4(1H,3H)-dione], the IC50 was 120 nM.

Regarding `COCCn1c(=O)n(C2CC2OC)c(=O)c2c(C)c(CN3CCNC3=O)sc21` (single isomer, unassigned) [Example 307, 3-(2-Methoxycyclopropyl)-1-(2-methoxyethyl)-5-methyl-6-[(2-oxoimidazolidin-1-yl)methyl]thieno[2,3-d]pyrimidine-2,4(1H,3H)-dione], the IC50 was determined as 8.1 nM.

On to `COCCn1c(=O)n(C2CC2OC)c(=O)c2c(C)c(CN3CCNC3=O)sc21` (single isomer, unassigned) [Example 308, 3-(2-Methoxycyclopropyl)-1-(2-methoxyethyl)-5-methyl-6-[(2-oxoimidazolidin-1-yl)methyl]thieno[2,3-d]pyrimidine-2,4(1H,3H)-dione], for which the half-inhibitory concentration (IC50) amounted to 870 nM.

`COCCn1c(=O)n(C2CC2OC)c(=O)c2c(C)c(Cn3nc[nH]c3=O)sc21` (single isomer, unassigned) [Example 310, 3-(2-Methoxycyclopropyl)-1-(2-methoxyethyl)-5-methyl-6-[(5-oxo-4,5-dihydro-1H-1,2,4-triazol-1-yl)methyl]thieno[2,3-d]pyrimidine-2,4(1H,3H)-dione]: the IC50 amounted to 3900 nM.

For `COCCn1c(=O)n(C2CC2OC)c(=O)c2c(C)c(Cn3nc[nH]c3=O)sc21` (single isomer, unassigned) [Example 311, 3-(2-Methoxycyclopropyl)-1-(2-methoxyethyl)-5-methyl-6-[(5-oxo-4,5-dihydro-H-1,2,4-triazol-1-yl)methyl]thieno[2,3-d]pyrimidine-2,4(1H,3H)-dione], the IC50 was 44 nM.

On to `Cc1c(Cn2nc[nH]c2=O)sc2c1c(=O)n(C1CC1)c(=O)n2CC1CC1(F)F` (single isomer, unassigned; enantiomer 1) [Example 21, 3-Cyclopropyl-1-[(2,2-difluorocyclopropyl)methyl]-5-methyl-6-[(5-oxo-4,5-dihydro-1H-1,2,4-triazol-1-yl)methyl]thieno[2,3-d]pyrimidine-2,4(1H,3H)-dione (enantiomer 1)], for which the IC50 came out at 53 nM.

On to `Cc1c(Cn2nc[nH]c2=O)sc2c1c(=O)n(C1CC1)c(=O)n2CC1CCC1(F)F` (single isomer, unassigned; enantiomer 1) [Example 202, 3-Cyclopropyl-1-[(2,2-difluorocyclobutyl)methyl]-5-methyl-6-[(5-oxo-4,5-dihydro-1H-1,2,4-triazol-1-yl)methyl]thieno[2,3-d]pyrimidine-2,4(1H,3H)-dione (enantiomer 1)], for which the IC50 is 140 nM.

On to `Cc1c(Cn2nc[nH]c2=O)sc2c1c(=O)n(C1CC1)c(=O)n2CC1CC1(F)F` (single isomer, unassigned; enantiomer 2) [Example 22, 3-Cyclopropyl-1-[(2,2-difluorocyclopropyl)methyl]-5-methyl-6-[(5-oxo-4,5-dihydro-1H-1,2,4-triazol-1-yl)methyl]thieno[2,3-d]pyrimidine-2,4(1H,3H)-dione (enantiomer 2)], for which the 50% inhibitory concentration (IC50) amounted to 280 nM.

As to `Cc1c(Cn2nc[nH]c2=O)sc2c1c(=O)n(C1CC1)c(=O)n2CC1CCC1(F)F` (single isomer, unassigned; enantiomer 2) [Example 203, 3-Cyclopropyl-1-[(2,2-difluorocyclobutyl)methyl]-5-methyl-6-[(5-oxo-4,5-dihydro-1H-1,2,4-triazol-1-yl)methyl]thieno[2,3-d]pyrimidine-2,4(1H,3H)-dione (enantiomer 2)], the half-inhibitory concentration (IC50) is 160 nM.

`Cc1c(CN2CCNC2=O)sc2c1c(=O)n(C1CC1)c(=O)n2C` [Example 1, 3-Cyclopropyl-1,5-dimethyl-6-[(2-oxoimidazolidin-1-yl)methyl]thieno[2,3-d]pyrimidine-2,4(1H,3H)-dione]: the IC50 amounted to 20 nM.

In the case of `Cc1c(Cn2nc[nH]c2=O)sc2c1c(=O)n(C1CC1)c(=O)n2C` [Example 2, 3-Cyclopropyl-1,5-dimethyl-6-[(5-oxo-4,5-dihydro-1H-1,2,4-triazol-1-yl)methyl]thieno[2,3-d]pyrimidine-2,4(1H,3H)-dione], the IC50 is 81 nM.

Regarding `CCCCn1c(=O)n(C2CC2)c(=O)c2c(C)c(CN3CCNC3=O)sc21` [Example 3, 1-Butyl-3-cyclopropyl-5-methyl-6-[(2-oxoimidazolidin-1-yl)methyl]thieno[2,3-d]pyrimidine-2,4(1H,3H)-dione], the IC50 was 6.9 nM.

Take `CCCCn1c(=O)n(C2CC2)c(=O)c2c(C)c(Cn3nc[nH]c3=O)sc21` [Example 4, 1-Butyl-3-cyclopropyl-5-methyl-6-[(5-oxo-4,5-dihydro-H-1,2,4-triazol-1-yl)methyl]thieno[2,3-d]pyrimidine-2,4(1H,3H)-dione]: the IC50 was 34 nM.

`Cc1c(CN2CCNC2=S)sc2c1c(=O)n(C1CC1)c(=O)n2CCCF` [Example 6, 3-Cyclopropyl-1-(3-fluoropropyl)-5-methyl-6-[(2-thioxoimidazolidin-1-yl)methyl]thieno[2,3-d]pyrimidine-2,4(1H,3H)-dione]: the IC50 amounted to 12 nM.
